# According to patent publication US9822414B2, “In vitro method for predicting in vivo genotoxicity of chemical compounds” (priority 2011, dated 2017):
# Values joined by “and” are separate entries in the source; they are usually repeats but may differ in a detail not shown here. Equal values may be shown once. Read-outs that look alike come from different tables or passages of the source.
# What was measured:
# [1] = tested on: conventional in vitro genotoxicity assays; conditions: cited from earlier work; for Results in the conventional in vitro genotoxicity assays: see Table 5
# [2] = tested on: rodents; conditions: cited from earlier work
# [3] = tested on: PWWP2B; experiment: Gene expression of PWWP2B in HepG2 cells exposed to compound (microarray, log2 treatment:control ratio); assay type: cell-based, human
# [4] = tested on: Salmonella typhimurium; conditions: cited from earlier work
# [5] = tested on: HepG2 cell; experiment: Class prediction of in vivo genotoxicity by the method of the invention (Ames stratification plus three-gene expression in HepG2); conditions: for Prediction (class prediction results using the method of the invention): 62 compounds, three replicates, HepG2 24 h; for At least ⅔ genes +?: per single measurement, GTX when at least two out of three genes above reference value
# [6] = tested on: PNMA6A; experiment: Gene expression of PNMA6A in HepG2 cells exposed to compound (microarray, log2 treatment:control ratio); assay type: cell-based, human; conditions: HepG2 cells; for Log2 treatment: control ratio PNMA6A: 24 h exposure, Ames negative compounds, one line per replicate of triplicate experiments; for PNMA6A: expression versus reference value, single measurement of three
# [7] = tested on: SLC40A1; experiment: Gene expression of SLC40A1 in HepG2 cells exposed to compound (microarray, log2 treatment:control ratio); assay type: cell-based, human; conditions: HepG2 cells; for Log2 treatment: control ratio SLC40A1: 24 h exposure, Ames negative compounds, one line per replicate of triplicate experiments; for SLC40A1: expression versus reference value, single measurement of three
# [8] = tested on: C10orf65/HOGA1; experiment: Gene expression of C10orf65/HOGA1 in HepG2 cells exposed to compound (microarray, log2 treatment:control ratio); assay type: cell-based, human; conditions: for Log2 treatment: control ratio C10orf65/HOGA1: 24 h exposure, Ames negative compounds, one line per replicate of triplicate experiments; for C10orf65/HOGA1: expression versus reference value, single measurement of three
# [9] = standard in vivo genotoxicity designation
Structure (SMILES),In vitro GTX [1],Results in the conventional in vitro genotoxicity assays [1],Standard (in vivo genotoxicity designation) ([2]; in vivo),PWWP2B above or below the reference value [3],Ames [4],Prediction (class prediction results using the method of the invention) [5],Average result over three measurements [5],At least ⅔ genes +? [5],Log2 treatment: control ratio PNMA6A [6],Log2 treatment: control ratio SLC40A1 [7],Standard ([2]; in vivo),Log2 treatment: control ratio C10orf65/HOGA1 [8],C10orf65/HOGA1 [8],PNMA6A [6],SLC40A1 [7],"Standard [2, 9]",Ames ([4]; Ames results based on NTP data),Classification of NGTX compounds by the method of the invention (false positives) ([5]; in vivo NGTX compounds),"In vivo GTX ([2]; positive when at least one in vivo assay (MN, CA) positive, equivocal considered positive)"
OCCCl [2-Cl],+,positive results,NGTX,+ (Plus sign indicates a value above the reference value),,,,,,,,,,,,,,,
"C=CC(=O)OCC [EtAc, Ethylacrylate]",+,,,,−,GTX,GTX,GTX,0.375 and 0.243 and 0.409,−0.448 and 0.634 and 0.031,NGTX,0.391 and 0.429 and 0.624,+ (above the reference value),,,,,,
CCc1ccccc1 [EthylB],+,,,,−,NGTX,,,0.313 and 0.434 and 0.392,−0.23 and −0.141 and 0.295,,−0.18 and 0.116 and −0.084,− (below the reference value),+ (above the reference value),− (below the reference value),NGTX,,,
CCOc1ccc(NC(C)=O)cc1 [Phen],+,,,,−,NGTX,,,−0.023 and 0.218 and −0.237,−0.646 and 0.127 and −0.048,,0.043 and 0.056 and 0.034,− (below the reference value),− (below the reference value),− (below the reference value),NGTX,,,
"Oc1cccc(O)c1 [RR, Resorcinol]",+,positive results,,,,GTX,GTX,GTX,,,,,+ (above the reference value),+ (above the reference value),+ (above the reference value),NGTX,−,misclassification,
CCC[CH2][Sn]([CH2]CCC)([CH2]CCC)[O][Sn]([CH2]CCC)([CH2]CCC)[CH2]CCC [TBTO],+,,,,−,GTX,GTX,GTX,0.909 and 0.663 and 0.456,0.604 and 1.649 and 0.208,,0.426 and 0.098 and 0.858,,+ (above the reference value),,GTX,,,+
Clc1cc2c(cc1Cl)Oc1cc(Cl)c(Cl)cc1O2 [TCDD],−,,,,−,NGTX,,,−0.041 and 0.26 and 0.072,0.169 and −0.21 and 0.104,,−0.107 and 0.056 and 0.151,,,− (below the reference value),NGTX,,,
CCCCCCCCCCCCCC(=O)O[C@@H]1[C@@H](C)[C@@]2(O)[C@@H](C=C(CO)C[C@]3(O)C(=O)C(C)=C[C@@H]23)[C@H]2C(C)(C)[C@]12OC(C)=O [TPA],−,,,,−,NGTX,,,−0.493 and −0.137 and −0.26,−0.327 and 1.338 and 0.199,,0.108 and −0.423 and 0.14,− (below the reference value),− (below the reference value),,NGTX,,,
